In article PMC6736568, “Discovery of Novel Anti-cryptosporidial Activities From Natural Products by in vitro High-Throughput Phenotypic Screening” (Frontiers in Microbiology, 2019):
Where two headings read alike, the source gives them in different places.

Assays:
Cryptosporidium parvum = assay: qRT-PCR assay of the growth of C. parvum in vitro in HCT-8 host cells (primary and secondary screening, EC50); assay type: cell-based; conditions: for % Inhibition (3.3 uM): secondary screening at 3.3 uM
[1] = primary screening at 10 uM, from Hs18S ΔCT
[2] = primary screening at 10 uM, treated vs control

Compound	Inhibition (%) (Cryptosporidium parvum; primary screening at 10 uM)	Cytotoxicity (%) (HCT-8 host cells (Hs18S); [1])	Hs18S ΔCT (HCT-8 host cells (Hs18S); [2])	also measured
MONENSIN SODIUM (monensin A is shown)	94.05	–	–	% Inhibition (3.3 uM) (Cryptosporidium parvum): 99%
C=C(C)[C@@H]1CC[C@]2(C)CC[C@]3(C)[C@H](CC[C@@H]4[C@@]5(C)CC[C@H](OC(C)=O)C(C)(C)[C@@H]5CC[C@]43C)[C@@H]12 [LUPEOL ACETATE]	25.85	-12.1	-0.17	–
STROPH[…] LACTONE ACETATE	96.28	80.7	2.37	% Inhibition (3.3 uM) (Cryptosporidium parvum): 19%
COc1ccc(-c2oc3cc(OC)c(OC)c(OC)c3c(=O)c2OC)cc1 [3,4',5,6,7-PENTAMETHOXYFLAVONE]	-9.57	15.6	0.24	–
AVOCATIN B	4.87	21.9	0.36	–
CYANOCOBALAMIN	16.98	-24.5	-0.32	–
COc1cc2cc3c4cc(OC)c(OC)cc4cc[n+]3c(C)c2cc1OC.[Cl-] [CORALYNE CHLORIDE]	-5.22	-23.6	-0.31	–
CNCC(=O)c1ccc(O)c(O)c1.Cl [ADRENOLONE HYDROCHLORIDE]	26.43	-16.6	-0.22	–
COc1ccc2c(c1O)-c1c(OC)c(OC)cc3c1[C@H](C2)N(C)CC3 [S-ISOCORYDINE (+)]	-15.72	-47.4	-0.56	–
CN[C@@H](C)[C@H](O)c1ccccc1.Cl [EPHEDRINE (1R,2S) HYDROCHLORIDE]	11.97	–	–	–
O=C(O)[C@@H]1CCCN1 [PROLINE (L)]	–	–	–	Hs18S ΔCT (HCT-8 host cells (Hs18S)): 0.03; Cytotoxicity (%) (HCT-8 host cells (Hs18S); 10 µM): 1.9; Inhibition (%) (Cryptosporidium parvum; 10 µM): -22.72
CC(C)CCC[C@@H](C)[C@H]1CC[C@H]2C3=CC[C@H]4C[C@@H](O)CC[C@]4(C)[C@H]3CC[C@]12C [LATHOSTEROL]	-50.10	21.4	0.35	–
Cc1c[nH]c2ccccc12 [SKATOLE]	25.24	18.5	0.30	–
CN1CCC[C@H]1c1cccnc1.O=C(O)C(O)C(O)C(=O)O.O=C(O)C(O)C(O)C(=O)O [NICOTINE BITARTRATE]	36.71	-43.3	-0.52	–
Cc1occc(=O)c1O [LARIXINIC ACID]	59.78	12.9	0.20	–
COc1cc(O)c(C(=O)/C=C/c2ccc(O)c(OC)c2)c(OC)c1 [2',4-DIHYDROXY-3,4',6'-TRIMETHOXYCHALCONE]	–	–	0.09	–
O=C(O)c1cc(O)c(=O)c2c(O)c(O)cc([C@H]3Oc4cc(O)cc(O)c4C[C@H]3O)c2c1 [EPITHEAFLAVIC ACID]	-9.36	–	–	Cytotoxicity (%) (HCT-8 host cells (Hs18S); 10 µM): 6.9%
O=C(O[C@@H]1Cc2c(O)cc(O)cc2O[C@@H]1c1ccc(O)c(O)c1)c1cc(O)c(O)c(O)c1 [EPICATECHIN MONOGALLATE]	6.24	23.1	0.38	–
CC1(C)C=Cc2c(c3c(c4c(=O)c(-c5ccc(O)c(O)c5)coc24)OC(C)(C)CC3)O1 [ISOPOMIFERIN]	–	-5.3	-0.07	–

Compound	Inhibition (%) (Cryptosporidium parvum; primary screening at 10 uM)	Cytotoxicity (%) (HCT-8 host cells (Hs18S); [1])	Hs18S ΔCT (HCT-8 host cells (Hs18S); [2])	also measured
C[C@]12CCC(=O)C[C@@H]1CC[C@@H]1[C@@H]2CC[C@]2(C)C(=O)CC[C@@H]12 [5alpha-ANDROSTAN-3,17-DIONE]	-13.88	-0.1	0.00	–
C=C1CCC(C2CC(=O)OC2=O)C(=O)CCC2C1CC2(C)C (stereo not drawn)	23.70	-6.8	-0.09	–
CC(=O)OC1CCC2(C)C(CC(OC(C)=O)C3(C)C4=CC(=O)OC(c5ccoc5)C4(C)CCC23)C1(C)C (stereo not drawn) [3alpha-ACETOXYDIHYDRODEOXYGEDUNIN]	–	–	-0.24	% Inhibition (3.3 uM) (Cryptosporidium parvum): 25%
C[C@]12CCC(=O)C=C1CC[C@@H]1[C@@H]2C(=O)C[C@@]2(C)[C@H]1CC[C@]2(O)C(=O)CO [CORTISONE]	-10.93	–	-0.17	–
O=c1ccn([C@@H]2O[C@H](COP(=O)([O-])OP(=O)([O-])OP(=O)([O-])O)[C@@H](O)[C@H]2O)c(=O)[nH]1.[Na+].[Na+].[Na+] [URIDINE TRIPHOSPHATE TRISODIUM]	91.48	14.5	0.23	% Inhibition (3.3 uM) (Cryptosporidium parvum): 17%
CC(=O)O[C@@H]1C[C@H]2C(C)(C)C(=O)C=C[C@]2(C)[C@H]2CC[C@]3(C)C(=CC(=O)O[C@H]3c3ccoc3)[C@@]21C [DEOXYGEDUNIN]	28.62	15.4	0.24	–
CC(=O)O[C@@H]1C[C@]2(C)[C@@H](C(C)=O)CC[C@H]2[C@@H]2CCC3=CC(=O)CC[C@]3(C)[C@H]21 [11a-ACETOXYPROGESTERONE]	10.83	-16.6	-0.22	–
C[C@H](CCC(=O)O)[C@H]1CC[C@H]2[C@@H]3[C@H](O)C[C@@H]4C[C@H](O)CC[C@]4(C)[C@H]3C[C@H](O)[C@]12C [CHOLIC ACID]	–	–	–	inhibition at 10 µM (Cryptosporidium parvum; Cryptosporidium parvum, HCT-8, primary screening at 10 uM, read-out: Inhibition (%)): 26.7%
CCC(C)C(NC)C(=O)O (stereo not drawn) [N-METHYLISOLEUCINE]	-3.51	–	–	Hs18S ΔCT (HCT-8 host cells (Hs18S)): -0.07; Cytotoxicity (%) (HCT-8 host cells (Hs18S); 10 µM): -5.2
O=C1CCC[C@@H]2[C@H]3C[C@@H](CN12)[C@@H]1CCCCN1C3.[O-][Cl+3]([O-])([O-])O [LUPANINE PERCHLORATE]	10.49	-6.1	-0.09	–
COc1cc(/C=C/C(=O)O)cc(OC)c1O [SINAPIC ACID]	–	–	0.25	–
C[C@@H]1CC[C@@]2(OC1)O[C@H]1C[C@H]3[C@@H]4CC[C@H]5C[C@@H](O)CC[C@]5(C)C4=CC[C@]3(C)[C@H]1[C@@H]2C [3beta-HYDROXYISOALLOSPIROST-9(11)-ENE]	6.79	-12.6	-0.17	–
COc1ccc(-c2coc3c4c(c(CC=C(C)C)c(O)c3c2=O)OC(C)(C)C=C4)cc1OC [POMIFERIN DIMETHYL ETHER]	-58.61	6.1	0.09	–
ABAMECTIN (avermectin B1a shown)	97.65	33.4	0.59	% Inhibition (3.3 uM) (Cryptosporidium parvum): -19%
CC[C@H](CC[C@@H](C)[C@H]1CC[C@H]2[C@@H]3CC[C@H]4C[C@@H](O)CC[C@]4(C)[C@H]3CC[C@]12C)C(C)C [FUCOSTANOL]	–	-61.6	-0.69	–
BACITRACIN	-21.81	1.4	0.02	–
C=C1CC/C=C(\C)CC[C@@H]2[C@@H]1CC2(C)C [CARYOPHYLLENE [t(-)]]	–	20.0	0.32	–
C=CCc1cc(OC)c2c(c1OC)OCO2 [APIOLE]	–	–	0.06	–
Cc1cc(=O)oc2cc(O)ccc12 [HYMECHROME]	–	–	-0.28	–

Compound	Inhibition (%) (Cryptosporidium parvum; primary screening at 10 uM)	Cytotoxicity (%) (HCT-8 host cells (Hs18S); [1])	Hs18S ΔCT (HCT-8 host cells (Hs18S); [2])	also measured
COc1c(O)cc2oc3cc(O)c(CC=C(C)C)c(O)c3c(=O)c2c1CC=C(C)C [alpha-MANGOSTIN]	–	95.1	4.36	–
COC(=O)C[C@H]1C(C)(C)C(=O)[C@@H]2CC3=C(CC[C@]4(C)C3=CC(=O)O[C@H]4c3ccoc3)[C@@]1(C)C2=O [CARAPIN-8(9)-ENE]	–	–	-0.62	–
COC1=C(OC)C(=O)C(C/C=C(\C)CC/C=C(\C)CC/C=C(\C)CC/C=C(\C)CC/C=C(\C)CC/C=C(\C)CC/C=C(\C)CC/C=C(\C)CC/C=C(\C)CCC=C(C)C)=C(C)C1=O [UBIDECARENEONE]	–	21.3	0.35	–
CCC(C)C(=O)O[C@@H]1C[C@@]2(C)[C@H](c3ccoc3)OC(=O)CC23OC2(C)OC34[C@H](OC(=O)C(C)C)[C@@]3(O)[C@@H](OC(=O)C5(C)OC5C)[C@@]5(C)C[C@]3(O)[C@@](C)([C@H]5CC(=O)OC)C14O2 (stereo partly drawn) [ENTANDROPHRAGMIN]	–	–	-0.12	–
CN1CCc2cc3c(cc2[C@H]1[C@@H]1OC(=O)c2c1ccc1c2OCO1)OCO3 [BICUCULLINE (+)]	–	-169.4	-1.43	–
Cc1c(S(=O)(=O)[O-])oc2c1C(=O)C(=O)c1c-2ccc2c1CCCC2(C)C.[Na+] [TANSHINONE IIA SULFONATE SODIUM]	–	–	0.01	–
COc1cc2c(cc1OC)C1C(=O)c3c(O)cc4c(c3OC1CO2)C=CC(C)(C)O4 (stereo not drawn) [alpha-TOXICAROL (dl)]	–	–	0.01	–
CCCCCCCCCCCC[C@@H](C(=O)O)[C@H](C)C(=O)O [ROCCELLIC ACID]	–	-4.1	-0.06	–
ISOTECTORIGENIN, 7-METHYL ETHER	-18.66	–	–	–
CC1(C)C(=O)C=C[C@]2(C)[C@H]3CC[C@@]4(C)[C@H](c5ccoc5)OC(=O)[C@H]5O[C@]54[C@]3(C)C=C[C@@H]12 [7-DESACETOXY-6,7-DEHYDROGEDUNIN]	–	–	5.31	–
CC12CCC(CC1=O)C2(C)C [CAMPHOR (1R)]	–	–	-0.22	–
CC(=O)Oc1cc(-c2coc3cc(OC(C)=O)c(OC(C)=O)c(OC(C)=O)c3c2=O)cc(OC(C)=O)c1OC(C)=O [IRIGINOL HEXAACETATE]	–	–	-0.17	–
COc1ccc(-c2cc(=O)c3c(OC)c(OC)c(OC)c(OC)c3o2)cc1 [TANGERITIN]	–	8.0	0.12	–
Cl.NCCC[C@H](N)C(=O)O [ORNITHINE HYDROCHLORIDE]	-42.36	–	–	–
CNCc1ccccc1.Cl [N-METHYLBENZYLAMINE HYDROCHLORIDE]	–	–	-0.08	–
HECOGENIN	–	–	-0.23	–
CC(=O)O[C@H]1C[C@@H](OC(C)=O)C(C)(C)C2C[C@@H](O)[C@]3(C)C(CC[C@@]4(C)[C@H](c5ccoc5)OC(=O)[C@H]5O[C@]543)[C@]21C (stereo partly drawn) [7-DEACETYLKHIVORIN]	–	-46.2	-0.55	–
COc1cc(/C=C/C(=O)O)ccc1O [FERULIC ACID]	–	–	-0.04	–
MEPARTRICIN	–	–	-0.51	–
